In general, T/C refers to the ratio of treated to control.

For this test, the system named is Swiss mice, Sarcoma 180 sc, mean tumor weight T/C. Put plainly: NCI In Vivo Anticancer Drug Screen. Data for tumor model Sarcoma 180 (subcutaneous) in Swiss mice. Conditions: endpoint: mean tumor weight, higher = larger tumour. The gist of the method: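 Antitumor activity is assessed in mice with transplantable tumors. Treated (T) and vehicle control (C) groups are compared on survival or tumor size.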

Setting [1] is: dose: 33.0 mg/kg/injection, schedule: Q01DX007 (ip), vehicle: saline.

Consider `CC1=C(CO)C(=O)O[C@@H]([C@@H](C)[C@H]2CC[C@H]3[C@@H]4C[C@H]5O[C@]56[C@@H](O)C=CC(=O)[C@]6(C)[C@H]4CC[C@]23C)C1`, for which the T/C (dose: 10.0 mg/kg/injection, schedule: Q01DX007 (ip), vehicle: carboxymethylcellulose (CMC)) is 64 % of control; the T/C (dose: 13.3 mg/kg/injection, schedule: Q01DX007 (ip), vehicle: saline) was 97 % of control; the T/C (dose: 13.7 mg/kg/injection, schedule: Q01DX007 (ip), vehicle: saline) is 85 % of control; the T/C (dose: 16.0 mg/kg/injection, schedule: Q01DX007 (ip), vehicle: saline) is 77 % of control; the T/C (dose: 16.0 mg/kg/injection, schedule: Q01DX007 (sc), vehicle: olive oil, sesame oil, peanut oil) was 90 % of control; the T/C (dose: 16.0 mg/kg/injection, schedule: Q01DX007 (sc), vehicle: steriod suspending solution) was 93 % of control. Besides, the T/C was 60 % of control (dose: 18.0 mg/kg/injection, schedule: Q01DX007 (ip), vehicle: saline); 54 % of control (dose: 24.0 mg/kg/injection, schedule: Q01DX007 (ip), vehicle: saline); 109 % of control (dose: 24.0 mg/kg/injection, schedule: Q01DX007 (sc), vehicle: olive oil, sesame oil, peanut oil); 66 % of control (dose: 24.0 mg/kg/injection, schedule: Q01DX007 (sc), vehicle: steriod suspending solution); 25 % of control under setting [1]; 77 % of control (dose: 36.0 mg/kg/injection, schedule: Q01DX007 (sc), vehicle: olive oil, sesame oil, peanut oil). For the same compound, under “dose: 36.0 mg/kg/injection, schedule: Q01DX007 (sc), vehicle: steriod suspending solution”, the T/C is 79 % of control.
On to `CCCCCCCCCCCCCCCCC(C(=O)O)C(O)(CC(=O)O)C(=O)O` (configuration not stated), for which the T/C by setting is: (dose: 19.0 mg/kg/injection, schedule: Q01DX007 (ip), vehicle: carboxymethylcellulose (CMC)) 81 % of control; (dose: 37.5 mg/kg/injection, schedule: Q01DX007 (ip), vehicle: carboxymethylcellulose (CMC)) 104 % of control; (dose: 75.0 mg/kg/injection, schedule: Q01DX007 (ip), vehicle: carboxymethylcellulose (CMC)) 91 % of control.
As to `CC1=C2C(=CC(C)(C)[C@@H]2O)C(=O)[C@](C)(O)C12CC2`, the T/C is 63 % of control (dose: 0.1 mg/kg/injection, schedule: Q01DX007 (ip), vehicle: saline); 25 % of control (dose: 0.2 mg/kg/injection, schedule: Q01DX007 (ip), vehicle: saline); 57 % of control (dose: 0.3 mg/kg/injection, schedule: Q01DX007 (ip), vehicle: saline); 28 % of control (dose: 0.4 mg/kg/injection, schedule: Q01DX007 (ip), vehicle: saline); 70 % of control (dose: 25.0 micrograms/kg/injection, schedule: Q01DX007 (ip), vehicle: saline); 102 % of control (dose: 50.0 micrograms/kg/injection, schedule: Q01DX007 (ip), vehicle: saline). The T/C runs as follows: (dose: 100.0 micrograms/kg/injection, schedule: Q01DX007 (ip), vehicle: saline) 84 % of control; (dose: 200.0 micrograms/kg/injection, schedule: Q01DX007 (ip), vehicle: saline) 100 % of control.
For `CCCCNc1nc(NCCCC)c2nsnc2n1`, the T/C is, setting by setting: (dose: 80.0 mg/kg/injection, schedule: Q01DX007 (ip), vehicle: carboxymethylcellulose (CMC)) 46 % of control; (dose: 100.0 mg/kg/injection, schedule: Q01DX007 (ip), vehicle: carboxymethylcellulose (CMC)) 56 % of control.
Consider `O=C(N/N=C/C=C/c1ccccc1)[C@H](O)[C@@H](O)C(=O)N/N=C/C=C/c1ccccc1`, for which the T/C reads like this: (dose: 111.0 mg/kg/injection, schedule: Q#A X014 (ip), vehicle: saline) 57 % of control; (dose: 166.5 mg/kg/injection, schedule: Q#A X014 (ip), vehicle: saline) 40 % of control; (dose: 250.0 mg/kg/injection, schedule: Q#A X014 (ip), vehicle: saline) 57 % of control.
Regarding `O=C1c2ccccc2C(=O)c2c1c(O)c1ccccc1c2O`, the T/C was 87 % of control (dose: 100.0 mg/kg/injection, schedule: Q#A X014 (im), vehicle: other); 70 % of control (dose: 100.0 mg/kg/injection, schedule: Q#A X014 (sc), vehicle: other); 109 % of control (dose: 200.0 mg/kg/injection, schedule: Q#A X014 (im), vehicle: other); 66 % of control (dose: 200.0 mg/kg/injection, schedule: Q#A X014 (sc), vehicle: other); 114 % of control (dose: 300.0 mg/kg/injection, schedule: Q#A X014 (im), vehicle: other); 64 % of control (dose: 300.0 mg/kg/injection, schedule: Q#A X014 (sc), vehicle: other). Further, the T/C by setting is: (dose: 400.0 mg/kg/injection, schedule: Q#A X014 (im), vehicle: other) 90 % of control; (dose: 400.0 mg/kg/injection, schedule: Q#A X014 (sc), vehicle: other) 65 % of control; (dose: 500.0 mg/kg/injection, schedule: Q#A X014 (oral), vehicle: other) 72 % of control; (dose: 750.0 mg/kg/injection, schedule: Q#A X014 (oral), vehicle: other) 69 % of control.
As for `CCCCSc1ncnc2nc[nH]c12`, the T/C is 55 % of control (dose: 44.0 mg/kg/injection, schedule: Q01DX007 (ip), vehicle: carboxymethylcellulose (CMC)); 53 % of control (dose: 51.0 mg/kg/injection, schedule: Q01DX007 (ip), vehicle: carboxymethylcellulose (CMC)); 41 % of control (dose: 93.0 mg/kg/injection, schedule: Q01DX007 (ip), vehicle: carboxymethylcellulose (CMC)).
As to `CS(C)=O`, the T/C (dose: 1000.0 mg/kg/injection, schedule: Q01DX007 (ip), vehicle: other) is 71 % of control; the T/C (dose: 1000.0 mg/kg/injection, schedule: Q#A X014 (ip), vehicle: other) is 91 % of control; the T/C (dose: 1500.0 mg/kg/injection, schedule: Q01DX007 (ip), vehicle: other) was 84 % of control; the T/C (dose: 1500.0 mg/kg/injection, schedule: Q#A X014 (ip), vehicle: other) was 99 % of control.
As to `NC(=O)NO`, the T/C runs as follows: (dose: 16.0 mg/kg/injection, schedule: Q01DX007 (ip), vehicle: carboxymethylcellulose (CMC)) 89 % of control; (dose: 32.0 mg/kg/injection, schedule: Q01DX007 (ip), vehicle: carboxymethylcellulose (CMC)) 111 % of control; (dose: 64.0 mg/kg/injection, schedule: Q01DX007 (ip), vehicle: carboxymethylcellulose (CMC)) 112 % of control; (dose: 128.0 mg/kg/injection, schedule: Q01DX007 (ip), vehicle: carboxymethylcellulose (CMC)) 69 % of control.
For `O=c1[nH]c(Cl)ncc1F`, the T/C runs as follows: (dose: 22.0 mg/kg/injection, schedule: Q01DX007 (ip), vehicle: saline) 36 % of control; under setting [1], 46 % of control; (dose: 50.0 mg/kg/injection, schedule: Q01DX007 (ip), vehicle: saline) 29 % of control; (dose: 75.0 mg/kg/injection, schedule: Q01DX007 (ip), vehicle: saline) 5 % of control.
Turning to `C[C@@H]1C[C@@]2(C)[C@@H](CC[C@@H]3[C@@H]2CC[C@]2(C)[C@@H](O)CC[C@@H]32)CC1=O`, the T/C was 120 % of control (dose: 25.0 mg/kg/injection, schedule: Q#A X014 (oral), vehicle: steriod suspending solution); 75 % of control (dose: 75.0 mg/kg/injection, schedule: Q#A X014 (oral), vehicle: steriod suspending solution); 63 % of control (dose: 187.5 mg/kg/injection, schedule: Q#A X014 (oral), vehicle: steriod suspending solution).

Source of the values: PubChem BioAssay AID342 (DTP/NCI, 2004).
